Test results from US20120121540A1 (priority 2007, published 2012).

assay: HCV replicon assay (luciferase reporter, ET cell line); type: cell-based; settings: Hepatitis C virus, HCV replicon luciferase activity in ET cells
Procedure, shortened: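 ET cells carry a stable luciferase-ubiquitin-neo/NS3-5B subgenomic HCV replicon with adaptive mutations. Compounds (0.1 nM to […], 0.5% DMSO) were added 24 h after plating, and luciferase was read 48-72 h later. EC50 came from 10-point 2-fold dilutions fitted to a Hill equation; TC50 was measured in parallel by WST-1.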

Point of comparison: `O=C(c1nc2c(C(F)(F)F)cc(-c3ccoc3)cn2c1Cl)N1CCCCC1c1cccc(F)c1` (centres unmarked) [Compound 545, (3-Chloro-6-furan-3-yl-8-trifluoromethyl-imidazo[1,2-a]pyridin-2-yl)-[2-(3-fluoro-phenyl)-piperidin-1-yl)-methanone], inhibition at 10 µM 70.2%. Against it:
- O=C(c1nc2c(C(F)(F)F)cc(-c3ccoc3)cn2c1Cl)N1CCC(c2ccccc2)C1 (centres unmarked) [Compound 260, (3-Chloro-6-furan-3-yl-8-trifluoromethyl-imidazo[1,2-a]pyridin-2-yl)-(3-phenyl-pyrrolidin-1-yl)-methanone] — higher, 96%
- CC(=O)c1cc(C(F)(F)F)c2nc(C(=O)N3CCC(c4cccc(F)c4)C3)c(Cl)n2c1 (centres unmarked) [Compound 642, 1-{3-Chloro-2-[3-(3-fluoro-phenyl)-pyrrolidine-1-carbonyl]-8-trifluoromethyl-imidazo[1,2-a]pyridin-6-yl}-ethanone] — higher, 73.8%
- O=C(NCc1cccs1)c1nc2c(C(F)(F)F)cc(-c3ccccc3)nn2c1Br [Compound 250, 3-Bromo-6-phenyl-8-trifluoromethyl-imidazo[1,2-b]pyridazine-2-carboxylic Acid(thiophen-2-ylmethyl)-amide] — higher, 92%
- O=C(c1nc2c(C(F)(F)F)cc(-c3ccco3)cn2c1Cl)N1Cc2cccnc2C1 [Compound 217, (3-Chloro-6-furan-2-yl-8-trifluoromethyl-imidazo[1,2-a]pyridin-2-yl)-(5,7-dihydro-pyrrolo[3,4-b]pyridin-6-yl)-methanone] — lower, 38.8%
- O=C(c1nc2c(C(F)(F)F)cc(-c3ccco3)cn2c1Cl)N1CCC(O)(c2ccccc2)C1 (centres unmarked) [Compound 317, (3-Chloro-6-furan-2-yl-8-trifluoromethyl-imidazo[1,2-a]pyridin-2-yl)-(3-hydroxy-3-phenyl-pyrrolidin-1-yl)-methanone] — higher, 94.6%
- O=C(NCc1ccc(OC(F)(F)F)cc1)c1nc2c(C(F)(F)F)cc(-c3ccco3)cn2c1Cl [Compound 204, 3-Chloro-6-furan-2-yl-8-trifluoromethyl-imidazo[1,2-a]pyridine-2-carboxylic acid 4-trifluoromethoxy-benzylamide] — lower, 31.7%
- O=C(NCc1cccs1)c1cc2cc(-c3ccccc3)cc(Br)n2n1 [Compound 111, 7-Bromo-5-phenyl-pyrazolo[1,5-a]pyridine-2-carboxylic Acid (thiophen-2-ylmethyl)-amide] — lower, 64.2%
- O=C(c1nc2c(C(F)(F)F)cc(-c3ccoc3)cn2c1Cl)N1CC=C(c2nccs2)CC1 [Compound 559, (3-Chloro-6-furan-3-yl-8-trifluoromethyl-imidazo[1,2-a]pyridine-2-yl)-(4-thiazol-2-yl-3,6-dihydro-2H-pyridin-1-yl)-methanone] — higher, 99.1%
- O=C(c1nc2c(C(F)(F)F)cc(-c3ccoc3)cn2c1Cl)N1CCC(c2ccncc2)C1 (centres unmarked) [Compound 454, (3-Chloro-6-furan-3-yl-8-trifluoromethyl-imidazo[1,2-a]pyridin-2-yl)-(3-pyridin-4-yl-pyrrolidin-1-yl)-methanone] — higher, 96.1%
- O=C(NC(C(=O)NCCCN1CCOCC1)c1cccs1)c1nc2c(C(F)(F)F)cc(-c3ccco3)cn2c1Cl (centres unmarked) [Compound 171, 3-Chloro-6-furan-2-yl-8-trifluoromethyl-imidazo[1,2-a]pyridine-2-carboxylic acid [(3-morpholin-4-yl-propylcarbamoyl)-thiophen-2-yl-methyl]-amide] — higher, 99.4%
- CN(C)S(=O)(=O)c1ccccc1C1=CCN(C(=O)c2nc3c(C(F)(F)F)cc(-c4ccoc4)cn3c2Cl)CC1 [Compound 577, 2-[1-(3-Chloro-6-furan-3-yl-8-trifluoromethyl-imidazo[1,2-a]pyridin-2-carbonyl)-1,2,3,6-tetrahydro-pyridin-4-yl)-N,N-dimethyl-benzenesulfonamide] — higher, 71.2%
- O=C(NCc1cccs1)c1nc2c(C(F)(F)F)cc(-c3ccccc3)cn2c1C(F)(F)F [Compound 193, 6-Phenyl-3,8-bis-trifluoromethyl-imidazo[1,2-a]pyridine-2-carboxylic acid (thiophen-2-ylmethyl)-amide] — higher, 82.3%
- CN(C)CCNC(=O)C(NC(=O)c1nc2c(C(F)(F)F)cc(-c3ccco3)cn2c1Cl)c1cccs1 (centres unmarked) [Compound 172, 3-Chloro-6-furan-2-yl-8-trifluoromethyl-imidazo[1,2-a]pyridine-2-carboxylic acid [(2-dimethylamino-ethylcarbamoyl)-thiophen-2-yl-methyl]-amide] — higher, 100%
- CN(C)CCNC(=O)[C@H]1[C@@H](c2ccccc2)CCN1C(=O)c1nc2c(C(F)(F)F)cc(-c3ccoc3)cn2c1Cl (stereo in doubt) [Compound 230, 1-(3-Chloro-6-furan-3-yl-8-trifluoromethyl-imidazo[1,2-a]pyridine-2-carbonyl)-3-phenyl-pyrrolidine-2-carboxylic Acid (2-dimethylamino-ethyl)-amide] — lower, 53.4%
- O=C(c1nc2c(C(F)(F)F)cc(-c3ccoc3)cn2c1Cl)N1CCC(c2nccs2)CC1 [Compound 556, (3-Chloro-6-furan-3-yl-8-trifluoromethyl-imidazo[1,2-a]pyridin-2-yl)-(4-thiazol-2-yl-piperidin-1-yl)-methanone] — higher, 99.5%
- CC(=O)N[C@H]1CN(C(=O)c2nc3c(C(F)(F)F)cc(-c4ccoc4)cn3c2Cl)C[C@@H]1c1ccccc1 (stereo in doubt) [Compound 459, N-(-1-(3-Chloro-6-furan-3-yl-8-trifluoromethyl-imidazo[1,2-a]pyridine-2-carbonyl)-4-phenyl-pyrrolidin-3-yl)-acetamide] — lower, 25.5%
- CC(C)(C)OC(=O)N[C@@H]1CCN(C(=O)c2nc3c(C(F)(F)F)cc(-c4ccoc4)cn3c2Cl)C1 [Compound 478, [1-(3-Chloro-6-furan-3-yl-8-trifluoromethyl-imidazo[1,2-a]pyridine-2-carbonyl)-pyrrolidin-3-yl]-carbamic acid tert-butyl ester] — lower, 4.9%
- Cc1c(C(=O)NCc2cccs2)nn2c(C)cc(-c3ccccc3)cc12 [Compound 115, 3,7-dimethyl-5-phenyl-pyrazolo[1,5-a]pyridine-2-carboxylic Acid (thiophen-2-ylmethyl)-amide] — lower, 55.3%
- O=C(c1nc2c(C(F)(F)F)cc(-c3ccoc3)cn2c1Cl)N1CCC(c2ccccc2)CC1 [Compound 535, (3-Chloro-6-furan-3-yl-8-trifluoromethyl-imidazo[1,2-a]pyridine-2-yl)-(4-phenyl-piperidin-1-yl)-methanone] — higher, 86.6%
- O=C(c1nc2c(C(F)(F)F)cc(-c3ccoc3)cn2c1Cl)N1CCC(c2cccnc2)C1 (centres unmarked) [Compound 453, (3-Chloro-6-furan-3-yl-8-trifluoromethyl-imidazo[1,2-a]pyridin-2-yl)-(3-pyridin-3-yl-pyrrolidin-1-yl)-methanone] — higher, 97.6%
- O=C(NCc1ccsc1)c1nc2c(C(F)(F)F)cc(-c3ccco3)cn2c1Cl [Compound 173, 3-Chloro-6-furan-2-yl-8-trifluoromethyl-imidazo[1,2-a]pyridine-2-carboxylic acid (thiophen-3-ylmethyl)-amide] — higher, 95.2%
- O=C(NCc1ccccc1F)c1cc2cc(-c3ccccc3)cc(I)n2n1 [Compound 128, 7-Iodo-5-phenyl-pyrazolo[1,5-a]pyridine-2-carboxylic Acid 2-fluoro-benzylamide] — lower, 65.2%
- O=C(c1nc2c(C(F)(F)F)cc(-c3c[nH]c4ccccc34)cn2c1Cl)N1CCC(c2cccc(F)c2)C1 (centres unmarked) [Compound 525, [3-Chloro-6-(1H-indol-3-yl)-8-trifluoromethyl-imidazo[1,2-a]pyridin-2-yl]-[3-(3-fluoro-phenyl)-pyrrolidin-1-yl]methanone] — lower, 23.4%
- O=C(NCc1ccc(F)cc1)c1nc2c(C(F)(F)F)cc(-c3ccoc3)cn2c1Cl [Compound 404] — higher, 83.9%
- O=C(c1nc2c(C(F)(F)F)cc(-c3ccoc3)cn2c1Cl)N1CC=C(c2ccccc2)CC1 [Compound 594, (3-Chloro-6-furan-3-yl-8-trifluoromethyl-imidazo[1,2-a]pyridin-2-yl)-(4-phenyl-3,6-dihydro-2H-pyridin-1-yl)-methanone] — higher, 88.5%
- O=C(c1nc2c(C(F)(F)F)cc(-c3ccoc3)cn2c1Cl)N1CCC(c2ccc(C(F)(F)F)cc2)C1 (centres unmarked) [Compound 336, (3-chloro-6-furan-3-yl-8-trifluoromethyl-imidazo[1,2-a]pyridin-2-yl)-[3-(4-trifluoromethyl-phenyl)-pyrrolidin-1-yl]-methanone] — higher, 73.2%
- COc1cccc(C2CCN(C(=O)c3nc4c(C(F)(F)F)cc(-c5ccoc5)cn4c3Cl)C2)c1 (centres unmarked) [Compound 451, (3-Chloro-6-furan-3-yl-8-trifluoromethyl-imidaz [1,2-a]pyridin-2-yl)-[3-(3-methoxy-phenyl)-pyrrolidin-1-yl]-methanone] — higher, 73.5%
- [H]/N=C(/NCc1cccs1)c1nc2c(C(F)(F)F)cc(-c3ccoc3)cn2c1Cl [Compound 382, 3-Chloro-6-furan-3-yl-N-thiophen-2-ylmethyl-8-trifluoromethyl-imidazo[1,2-a]pyridine-2-carboxamidine] — lower, 65.4%
- O=C(c1nc2c(C(F)(F)F)cc(C3=CCNCC3)cn2c1Cl)N1CCC(c2cccc(F)c2)C1 (centres unmarked) [Compound 629, [3-chloro-6-(1,2,3,6-tetrahydropyridin-4-yl)-8-(trifluoromethyl)imidazo[1,2-a]pyridin-2-yl][3-(3-fluorophenyl)pyrrolidin-1-yl]methanone] — higher, 73.3%
- O=C(NCc1ccc(C(F)(F)F)cc1)c1nc2c(C(F)(F)F)cc(-c3ccco3)cn2c1Cl [Compound 181, 3-Chloro-6-furan-2-yl-8-trifluoromethyl-imidazo[1,2-a]pyridine-2-carboxylic acid 4-trifluoromethyl-benzylamide] — lower, 48.2%
- O=C(c1nc2c(C(F)(F)F)cc(-c3ccoc3)cn2c1Cl)N1CC=C(c2ccncc2F)CC1 [Compound 572, (3-Chloro-6-furan-3-yl-8-trifluoromethyl-imidazo[1,2-1]pyridine-2-yl)-(3′-fluoro-3,6-dihydro-2H-[4,4′]bipyridinyl-1-yl)-methanone] — higher, 98.2%
